Read-outs that look alike come from different tables or passages of the source.
Legend:
Format in all cases: biochemical
[1] = molecular target: T1, NRH:quinone oxidoreductase 2 (NQO2) (Homo sapiens, UniProt P16083); test: rhNQO2 resazurin reduction, 96-well fluorescence assay
T1 sequence (P16083 1-231): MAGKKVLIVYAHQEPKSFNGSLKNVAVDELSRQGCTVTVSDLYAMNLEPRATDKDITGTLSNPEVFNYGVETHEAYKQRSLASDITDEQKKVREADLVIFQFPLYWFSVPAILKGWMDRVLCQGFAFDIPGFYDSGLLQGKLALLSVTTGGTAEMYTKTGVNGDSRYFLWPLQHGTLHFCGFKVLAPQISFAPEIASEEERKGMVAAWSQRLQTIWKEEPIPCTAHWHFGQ

[2] = molecular target: T1, NRH:quinone oxidoreductase 2 (NQO2); test: NRH-dependent inactivation of rhNQO2; conditions: read-out: rhNQO2 inhibition at 1μM ^a
[3] = molecular target: T1, NRH:quinone oxidoreductase 2 (NQO2); test: NRH-dependent inactivation of rhNQO2; conditions: read-out: rhNQO2 inhibition at 1μM ^a; remark: listed apart in the source
[4] = molecular target: T1, NRH:quinone oxidoreductase 2 (NQO2); test: NRH-dependent inactivation of rhNQO2; conditions: read-out: rhNQO2 inhibition at 1μM ^a; remark: listed apart in the source

| Structure (SMILES) | rhNQO2 resazurin reduction, 96-well fluorescence assay [1] | other results |
| --- | --- | --- |
| CCN(CC)CCCC(C)Nc1ccnc2cc(Cl)ccc12 (stereo not shown) [chloroquine] | quercetin, imatinib, resveratrol, chloroquine, and melatonin for their ability to inhibit rhNQO2 activity in a cell-free system | – |
| Cc1c(COc2ccc([N+](=O)[O-])cc2)c2c(n1C)C(=O)C=C(NCCCCN)C2=O [compound 1, 5-(4-aminobutyl)amino-1,2-dimethyl-3-[(4-nitrophenoxy)methyl]indole-4,7-dione] | – | inhibition at 1 µM [2]: 96% |
| Cc1c(COc2c(F)cc(F)cc2F)c2c(n1C)C(=O)C=C(NCCCCN)C2=O [compound 2, 5-(4-aminobutyl)amino-1,2-dimethyl-3-[(2,4,6-trifluorophenoxy)methyl]indole-4,7-dione] | – | inhibition at 1 µM [3]: 96% |
| Cc1c(COc2c(F)cc(F)cc2F)c2c(n1C)C(=O)C(NCCCCN)=CC2=O [compound 3, 6-(4-aminobutyl)amino-1,2-dimethyl-3-[(2,4,6-trifluorophenoxy)methyl]indole-4,7-dione] | – | inhibition at 1 µM [4]: 33% |
| Cc1ccc(NC(=O)c2ccc(CN3CCN(C)CC3)cc2)cc1Nc1nccc(-c2cccnc2)n1 [imatinib] | quercetin, imatinib, resveratrol, chloroquine, and melatonin for their ability to inhibit rhNQO2 activity in a cell-free system | – |
| O=c1c(O)c(-c2ccc(O)c(O)c2)oc2cc(O)cc(O)c12 [quercetin] | quercetin, imatinib, resveratrol, chloroquine, and melatonin for their ability to inhibit rhNQO2 activity in a cell-free system | – |
| Oc1ccc(/C=C/c2cc(O)cc(O)c2)cc1 [resveratrol] | quercetin, imatinib, resveratrol, chloroquine, and melatonin for their ability to inhibit rhNQO2 activity in a cell-free system | – |
